Results taken from patent US9738614B2, “Malignant and non-malignant disease treatment with Ras antagonists” (PISCES THERAPEUTICS, LLC, priority 2011, dated 2017).

Assays:
U87MG cells = assay: Cell proliferation assay for U87MG cells; type: cell-based
Method: (§1) The adult glioblastoma cell line U87MG was obtained from a commercial source (ATCC). The pancreatic cancer cell line PANC-1 was obtained from a local laboratory (Indiana University). Both lines were grown in Iscove's Modified Dulbecco's Medium with 10% fetal bovine serum (FBS) at 37° C. and 5% CO2.
(§2) Compounds (1), (2), (3), (4), and (5), which are shown and described above, were each dissolved in ethanol at 10 mg/mL. A measured portion of the solution was pipetted into a microcentrifuge tube. Then, the ethanol was evaporated from each tube using a SpeedVac®, leaving just the compound in the tube. The appropriate amount of chloroform was added to the tube to produce a 0.1 M concentration. The solutions were placed on ice and in the dark so they could be pipetted into 10- and 20-μL aliquots in 1.5 mL microcentrifuge tubes. The solutions were frozen at […] with lids closed tightly and the tubes covered with foil.
(§3) Prior to treating the cells, a tube of the test compound was removed from the freezer and placed under a biosafety hood to evaporate the chloroform in the tubes. Then, dimethyl sulfoxide (DMSO) was added to the tubes to make the correct concentration to use in the experiment (0.1 M stock). The tubes were vortexed, and warm media with 10% FBS was slowly added to make the correct working concentrations to be used in the experiment. The compounds were directly added to each well for treatment.
U87MG cells were seeded in a 24-well plate, 5000 cells per well, and incubated overnight at 37° C. in serum-free media. The next day they were treated in triplicate with 50 and 100 μM of each test compound (1), (2), (3), (4), and (5) and the reference compound FTS. After five days, the cells were trypsinized (0.5%), stained with trypan blue, and counted to determine the cell number per well. The half-maximal inhibitory concentration (IC50) values were calculated using Multiplex Reader-Fit software made by MiraiBio Group, Hitachi Solutions America, Ltd. In a typical experiment, the control wells averaged 138,000 cells. The results are presented graphically in FIG. 1. The test compounds at 50 μM allowed the following U87MG cell proliferation compared to control: compound (1)—37%, compound (2)—18%, compound (3)—10%, compound (4)—40%, and compound (5)—0%. The reference compound FTS at 50 μM allowed 7% cell proliferation compared to control.
To further evaluate compounds (3) and (5), which inhibited the most cell growth in FIG. 1, more U87MG cells were seeded in 24-well plates, 5000 cells per well, and incubated overnight at 37° C. in serum-free media. The cells were treated the next morning in media with 5% serum in triplicate with standard concentrations of 6.25, 12.5, 25, and 50 μM of each test compound (3) and (5) and the reference compound FTS. After five days of treatment, the cells were trypsinized (0.5%) and then stained with trypan blue. Cells were counted to determine the number of cells per well. Again, the IC50 values were calculated using Multiplex Reader-Fit software made by MiraiBio Group, Hitachi Solutions America, Ltd. In a typical experiment, the control wells averaged 56,000 cells. The results are presented graphically in FIG. 2. The test compounds at 25 μM allowed the following U87MG cell proliferation compared to control: compound (3)—69% and compound (5)—0%. The reference compound FTS at 25 μM allowed over 50% cell proliferation compared to control.
Since the doses of compound (5) used above killed all of the cells, the dose curve was set up again using even lower doses of compound (5). U87MG cells were seeded in 24-well plates, 5000 cells per well, and incubated overnight at 37° C. in serum-free media. The cells were treated in triplicate with 6.25, 12.5, 25, and 50 μM of the reference compound FTS and 0.3125, 0.625, 1.25, 2.5, and 5.0 μM of the test compound (5) in media with 5% serum for five days. Then, the cells were trypsinized (0.5%) and stained with trypan blue, and the cell number per each well was determined. […]

PANC-1 cells = assay: Cell proliferation assay for PANC-1 cells; type: cell-based; settings: 12.5 μM, media with 5% serum, five days (FIG. 3)
Method: as §1, §2, §3
The cells were treated in triplicate with standard concentrations of 6.25, 12.5, 25, 50, and 100 μM of each test compound (3) and (5) and the reference compound FTS and, when needed, concentrations of 0.625, 1.25, 2.5 and 5.0 μM in media with 5% serum for five days. Then, the cells were stained with trypan blue, and the cell number per each well was determined. Again, the IC50 values were calculated using Multiplex Reader-Fit software made by MiraiBio Group, Hitachi Solutions America, Ltd. In a typical experiment, the control wells averaged 32,500 cells. The results are presented graphically in FIG. 3. […]

[1] = test system: hematopoietic progenitor cells (cord blood low density cells); assay: Human hematopoietic progenitor cell toxicity (colony assay); type: cell-based; settings: 12 days; 25 and 2.5 μM for compound (3), 2.5 and 0.25 μM for compound (5)
Method: Cord blood low density cells were plated at 1×10^5 cells per plate in 1 mL complete methylcellulose in the presence of each test compound (3) and (5) and incubated for 12 days in a CO2 incubator. Colony-forming unit-granulocyte (CFU-GM), burst-forming unit-erythroid (BFU-E), and mixed colonies were counted under an inverted microscope. […] The test compounds were not toxic to the hematopoietic progenitor cells.

[2] = test system: primary human lung fibroblasts; assay: Inhibition of TGF-β induced myofibroblast formation (α-SMA Western blot); type: cell-based; settings: TGF-β 72 hours, concentrations below 25 μM
Method: Primary human lung fibroblasts were stimulated for 72 hours with transforming growth factor beta (TGF-β) to induce their differentiation to an alpha smooth muscle actin (α-SMA) expressing activated myofibroblasts cell fate. […] The activin like kinase receptor (ALK5) inhibitor SB431542 was used as a positive control. Myofibroblast formation was evaluated by Western blot by examining changes in α-SMA levels.

Ras-GTP = Ras-GTP Western blot in PDGF-stimulated NF-1-/- Schwann cells; type: cell-based, mouse; settings: 2.5-5 μM, 3 minutes after PDGF stimulation (FIG. 5A)
Method: (§4) A purified population of NF-1−/−S 100+Schwann cells isolated from a plexiform neurofibroma in a genetically engineered mouse (Zhu, Y. et al., Science, May 2002, 3; 296(5569)):920-922) were stimulated with a maximum stimulating concentration of platelet derived growth factor (PDGF) in the presence of a control or compound (3) at concentrations of 2.5-5 μM. Ras-GTP was measured 3 minutes subsequently using Western blot analysis. […] In parallel experiments, Schwann cell proliferation was measured using visible spectroscopy 24 hrs after PDGF stimulation in the presence of a control or compound (3) at concentrations of 25-50 μM. […] Each asterisk in FIG. 5B represents a statistical difference relative to the control using analysis of variance. (Yang, Feng-Chun, et. al. J Clin Invest 2003, 112(12), 1851-1861; Yang, Feng-Chun, et. al. Hum Mol Genet 2006, 15(11), 1921-1930).

[3] = test system: NF-1-/- S100+ Schwann cells; assay: NF-1-/- Schwann cell proliferation (visible spectroscopy); type: cell-based, mouse; settings: 25-50 μM, 24 hrs after PDGF stimulation (FIG. 5B)
Method: as §4

[4] = 25 μM, media with 5% serum, five days (FIG. 2)
[5] = 50 μM, five days, trypan blue cell count (FIG. 1)

Structure (SMILES)	U87MG cell proliferation compared to control (U87MG cells; 6.25 μM, media with 5% serum, five days (FIG. 2))	U87MG cell proliferation compared to control (U87MG cells; [4])	U87MG cell proliferation compared to control (U87MG cells; [5])	PANC-1 cell proliferation compared to control (PANC-1 cells)	IC50 (U87MG cells; Homo sapiens, U-87 MG, value quoted in Example 7, read-out: IC50 as determined on the U87MG cells)	toxicity to hematopoietic progenitor cells (CFU-GM, BFU-E, mixed colonies) [1]	inhibition of myofibroblast formation [2]	level of Ras-GTP relative to the control (Ras-GTP)	Schwann cell proliferation relative to the control [3]
CC(C)=CCC/C(C)=C/CC/C(C)=C/CSc1ccccc1C(=O)O [FTS, farnesyl-thiosalicylic acid, reference compound]	over 80%	over 50%	7%	over 80%	–	–	–	–	–
CC(C)=CCC/C(C)=C/CC/C(C)=C/CSc1ccccc1-c1nn[nH]n1 [compound (1), 5-(2-{[(2E,6E)-3,7,11-trimethyldodeca-2,6,10-trien-1-yl]sulfanyl}phenyl)-2H-1,2,3,4-tetrazole]	–	–	37%	–	–	–	–	–	–
CC(C)=CCC/C(C)=C/CC/C(C)=C/CSc1ccsc1C(=O)O [compound (3), 3-{[(2E,6E)-3,7,11-trimethyldodeca-2,6,10-trien-1-yl]sulfanyl}thiophene-2-carboxylic acid]	–	69%	10%	41%	25 µM	not toxic	did not inhibit	significantly reduced	reduced
CCOC(=O)c1nnsc1SC/C=C(\C)CC/C=C(\C)CCC=C(C)C [compound (4), Ethyl 5-{[(2E,6E)-3,7,11-trimethyldodeca-2,6,10-trien-1-yl]sulfanyl}-1,2,3-thiadiazole-4-carboxylate]	–	–	40%	–	–	–	–	–	–
